Laboratory results: ChEMBL document CHEMBL1201862, “PubChem BioAssay data set” (2004)
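Results reflect a 48-hour exposure of cells in 96-well plates to compound at five concentrations. Here, GI50 denotes the concentration required for 50% inhibition of growth.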 Active and inactive are the calls of the source. Cut-off read from the data, not from the text of the source: active = GI50 up to about 1.1 µM and inactive = higher.

How the values were obtained:
Test in all cases: NCI tumour cell line growth inhibition, 48 h
CCRF-CEM = tested on: CCRF-CEM
UACC-257 = tested on: UACC-257
HOP-92 = tested on: HOP-92
RXF 393 = tested on: RXF 393
ACHN = tested on: ACHN
COLO 205 = tested on: COLO 205
NCI-H522 = tested on: NCI-H522
NCI-H226 = tested on: NCI-H226
SNB-19 = tested on: SNB-19
HL-60 = tested on: HL-60
K562 = tested on: K562
U-251 = tested on: U-251
RPMI-8226 = tested on: RPMI-8226
UO-31 = tested on: UO-31
TK-10 = tested on: TK-10
HT-29 = tested on: HT-29
EKVX = tested on: EKVX
MDA-MB-231 = tested on: MDA-MB-231
MDA-MB-435 = tested on: MDA-MB-435

Measured: GI50

CC(C)=CCC/C(C)=C/CC/C(C)=C/C1CCC(=O)C1(C)C (stereo not given)
inactive: CCRF-CEM 17.1 µM | UACC-257 21.3 µM | HOP-92 25.9 µM | RXF 393 22.1 µM | ACHN 16.6 µM | COLO 205 16.2 µM | NCI-H522 15.2 µM | NCI-H226 14.7 µM | SNB-19 25.1 µM | HL-60 11.6 µM | K562 19.8 µM | U-251 18.1 µM | RPMI-8226 20 µM | UO-31 17 µM | TK-10 39.4 µM | HT-29 17.5 µM | EKVX 19.7 µM

CCCc1ccc(/N=C\c2cc(OC)c(OC)c(OC)c2)cc1
inactive: CCRF-CEM 26.6 µM | UACC-257 > 100 µM | HOP-92 > 51.3 µM | RXF 393 > 100 µM | ACHN > 100 µM | COLO 205 > 31.6 µM | NCI-H522 > 59.2 µM | NCI-H226 > 100 µM | SNB-19 > 100 µM | HL-60 21.5 µM | K562 36 µM | U-251 > 100 µM | RPMI-8226 24.4 µM | UO-31 > 100 µM | TK-10 > 100 µM | HT-29 > 87.7 µM | EKVX > 100 µM

CN1COc2c(n(C)c(=O)[nH]c2=O)C1
inactive: CCRF-CEM > 61.7 µM | UACC-257 > 100 µM | HOP-92 > 100 µM | RXF 393 > 66.7 µM | ACHN > 100 µM | COLO 205 59 µM | NCI-H522 > 100 µM | NCI-H226 > 100 µM | SNB-19 > 100 µM | HL-60 24.4 µM | K562 > 100 µM | U-251 > 100 µM | RPMI-8226 26.1 µM | UO-31 > 100 µM | TK-10 > 100 µM | HT-29 > 100 µM | EKVX > 100 µM

Cc1cc(Cl)ccc1NC(=O)C(=O)C(C(=O)c1ccccc1)C1OC(=O)c2ccccc21 (stereo not given)
inactive: CCRF-CEM > 100 µM | UACC-257 > 100 µM | HOP-92 > 100 µM | RXF 393 > 100 µM | ACHN > 100 µM | COLO 205 > 100 µM | NCI-H522 > 100 µM | NCI-H226 > 100 µM | SNB-19 > 100 µM | HL-60 > 100 µM | K562 > 100 µM | U-251 > 100 µM | RPMI-8226 > 100 µM | UO-31 > 100 µM | TK-10 > 100 µM | HT-29 > 100 µM | EKVX > 100 µM

Nc1c([N+](=O)[O-])nc(Cl)c2nncn12
inactive: CCRF-CEM > 46 µM | UACC-257 > 100 µM | HOP-92 > 100 µM | RXF 393 > 100 µM | ACHN > 100 µM | COLO 205 > 43 µM | NCI-H522 > 74.6 µM | NCI-H226 > 100 µM | SNB-19 > 100 µM | HL-60 > 100 µM | K562 > 72.4 µM | U-251 > 71.9 µM | RPMI-8226 > 47.1 µM | UO-31 > 100 µM | TK-10 > 100 µM | HT-29 96.8 µM | EKVX > 100 µM

CSc1nnc(CCC(=O)Nc2c(C)cccc2C)o1
inactive: CCRF-CEM > 100 µM | UACC-257 > 100 µM | HOP-92 > 100 µM | RXF 393 > 100 µM | COLO 205 > 100 µM | NCI-H522 > 100 µM | NCI-H226 > 100 µM | SNB-19 > 100 µM | HL-60 > 100 µM | K562 > 100 µM | U-251 > 100 µM | RPMI-8226 > 100 µM | UO-31 > 100 µM | TK-10 > 100 µM | HT-29 > 100 µM | EKVX > 100 µM

CC(c1cccc2ccccc12)/[N+]([O-])=C/c1ccccc1 (stereo not given)
inactive: CCRF-CEM > 100 µM | UACC-257 > 100 µM | HOP-92 29.5 µM | RXF 393 > 100 µM | ACHN > 100 µM | COLO 205 > 100 µM | NCI-H522 78.7 µM | SNB-19 > 100 µM | HL-60 99.5 µM | K562 > 100 µM | U-251 > 100 µM | RPMI-8226 58.3 µM | UO-31 39.6 µM | TK-10 > 100 µM | HT-29 > 100 µM | EKVX 70.8 µM

Cc1c2ccccc2cc2cccc[n+]12
inactive: CCRF-CEM 31.9 µM | MDA-MB-231 37.7 µM | UACC-257 19.2 µM | RXF 393 23.3 µM | ACHN 62.1 µM | COLO 205 19.8 µM | NCI-H522 12.9 µM | SNB-19 28.6 µM | HL-60 29.3 µM | K562 10.4 µM | MDA-MB-435 36 µM | RPMI-8226 18.7 µM | UO-31 10.6 µM | TK-10 39.8 µM | HT-29 29.2 µM | EKVX 4.72 µM

COC(=O)/C=C/C1C(C(=O)OC)C2(C(=O)OC)CCC1(C(=O)OC)N2 (stereo not given)
inactive: CCRF-CEM > 100 µM | UACC-257 > 100 µM | HOP-92 > 100 µM | RXF 393 > 100 µM | ACHN > 100 µM | COLO 205 > 100 µM | NCI-H522 > 100 µM | NCI-H226 > 100 µM | SNB-19 > 100 µM | HL-60 > 100 µM | K562 > 100 µM | U-251 > 100 µM | RPMI-8226 > 100 µM | UO-31 > 100 µM | TK-10 > 100 µM | HT-29 > 100 µM | EKVX > 100 µM
